# Data from ChEMBL document CHEMBL2202954, “The effect of PLC-γ2 inhibitors on the growth of human tumour cells” (2012).
# Experiments:
# Assay type in all cases: functional
# [1] = tested on: SK-OV-3; test: Cytotoxicity against human SKOV3 cells assessed as cellular growth at 10 uM by SRB assay
# [2] = tested on: LOX IMVI; test: Cytotoxicity against human LOXIMVI cells assessed as cellular growth at 10 uM by SRB assay
# [3] = tested on: SNB-19; test: Cytotoxicity against human SNB19 cells assessed as cellular growth at 10 uM by SRB assay
# [4] = tested on: DU-145; test: Cytotoxicity against human DU145 cells assessed as cellular growth at 10 uM by SRB assay
# [5] = tested on: MDA-MB-435; test: Cytotoxicity against human MDA-MB-435 cells assessed as cellular growth at 10 uM by SRB assay
# [6] = tested on: MOLT-4; test: Cytotoxicity against human MOLT4 cells assessed as cellular growth at 10 uM by SRB assay
# [7] = tested on: NCI-H23; test: Cytotoxicity against human NCI-H23 cells assessed as cellular growth at 10 uM by SRB assay
# [8] = tested on: CCRF-CEM; test: Cytotoxicity against human CCRF-CEM cells assessed as cellular growth at 10 uM by SRB assay
# [9] = tested on: HCC 2998; test: Cytotoxicity against human HCC2998 cells assessed as cellular growth at 10 uM by SRB assay
# [10] = tested on: EKVX; test: Cytotoxicity against human EKVX cells assessed as cellular growth at 10 uM by SRB assay
# [11] = tested on: BT-549; test: Cytotoxicity against human BT549 cells assessed as cellular growth at 10 uM by SRB assay
# [12] = tested on: SK-MEL-5; test: Cytotoxicity against human SK-MEL-5 cells assessed as cellular growth at 10 uM by SRB assay
# [13] = tested on: NCI-H522; test: Cytotoxicity against human NCI-H522 cells assessed as cellular growth at 10 uM by SRB assay
# [14] = tested on: 786-0; test: Cytotoxicity against human 786-0 cells assessed as cellular growth at 10 uM by SRB assay
# [15] = tested on: HCT-15; test: Cytotoxicity against human HCT15 cells assessed as cellular growth at 10 uM by SRB assay
# [16] = Cytotoxicity against human NCI-ADR-RES cells assessed as cellular growth at 10 uM by SRB assay
# [17] = tested on: HOP-92; test: Cytotoxicity against human HOP92 cells assessed as cellular growth at 10 uM by SRB assay
# [18] = tested on: OVCAR-5; test: Cytotoxicity against human OVCAR5 cells assessed as cellular growth at 10 uM by SRB assay
# [19] = tested on: SK-MEL-28; test: Cytotoxicity against human SK-MEL-28 cells assessed as cellular growth at 10 uM by SRB assay
# [20] = tested on: M14; test: Cytotoxicity against human M14 cells assessed as cellular growth at 10 uM by SRB assay
# [21] = tested on: SW-620; test: Cytotoxicity against human SW620 cells assessed as cellular growth at 10 uM by SRB assay
# [22] = tested on: Malme-3M; test: Cytotoxicity against human MALME-3M cells assessed as cellular growth at 10 uM by SRB assay
# [23] = tested on: MCF7; test: Cytotoxicity against human MCF7 cells assessed as cellular growth at 10 uM by SRB assay
# [24] = tested on: OVCAR-8; test: Cytotoxicity against human OVCAR8 cells assessed as cellular growth at 10 uM by SRB assay
# [25] = tested on: UACC-62; test: Cytotoxicity against human UACC62 cells assessed as cellular growth at 10 uM by SRB assay
# [26] = tested on: OVCAR-3; test: Cytotoxicity against human OVCAR3 cells assessed as cellular growth at 10 uM by SRB assay
# [27] = tested on: UO-31; test: Cytotoxicity against human UO31 cells assessed as cellular growth at 10 uM by SRB assay
# [28] = tested on: Hs-578T; test: Cytotoxicity against human Hs578T cells assessed as cellular growth at 10 uM by SRB assay
# [29] = tested on: CAKI-1; test: Cytotoxicity against human Caki1 cells assessed as cellular growth at 10 uM by SRB assay
# [30] = tested on: NCI-H322M; test: Cytotoxicity against human NCI-H322M cells assessed as cellular growth at 10 uM by SRB assay
# [31] = tested on: MDA-MB-231; test: Cytotoxicity against human MDA-MB-231 cells assessed as cellular growth at 10 uM by SRB assay
# [32] = tested on: SF-539; test: Cytotoxicity against human SF539 cells assessed as cellular growth at 10 uM by SRB assay
# [33] = tested on: NCI-H226; test: Cytotoxicity against human NCI-H226 cells assessed as cellular growth at 10 uM by SRB assay
# [34] = tested on: HL-60(TB); test: Cytotoxicity against human HL-60(TB) cells assessed as cellular growth at 10 uM by SRB assay
# [35] = tested on: A549; test: Cytotoxicity against human A549 cells assessed as cellular growth at 10 uM by SRB assay
# [36] = tested on: ACHN; test: Cytotoxicity against human ACHN cells assessed as cellular growth at 10 uM by SRB assay
# [37] = tested on: K562; test: Cytotoxicity against human K562 cells assessed as cellular growth at 10 uM by SRB assay
# [38] = tested on: UACC-257; test: Cytotoxicity against human UACC257 cells assessed as cellular growth at 10 uM by SRB assay
# [39] = tested on: COLO 205; test: Cytotoxicity against human COLO205 cells assessed as cellular growth at 10 uM by SRB assay
# [40] = tested on: SN12C; test: Cytotoxicity against human SN12C cells assessed as cellular growth at 10 uM by SRB assay
# [41] = tested on: SF-268; test: Cytotoxicity against human SF268 cells assessed as cellular growth at 10 uM by SRB assay
# [42] = tested on: HCT-116; test: Cytotoxicity against human HCT116 cells assessed as cellular growth at 10 uM by SRB assay
# [43] = tested on: A498; test: Cytotoxicity against human A498 cells assessed as cellular growth at 10 uM by SRB assay
# [44] = tested on: SF-295; test: Cytotoxicity against human SF295 cells assessed as cellular growth at 10 uM by SRB assay
# [45] = tested on: MDA-MB-468; test: Cytotoxicity against human MDA-MB-468 cells assessed as cellular growth at 10 uM by SRB assay
# [46] = tested on: OVCAR-4; test: Cytotoxicity against human OVCAR4 cells assessed as cellular growth at 10 uM by SRB assay
# [47] = tested on: HT-29; test: Cytotoxicity against human HT-29 cells assessed as cellular growth at 10 uM by SRB assay
# [48] = tested on: HOP-62; test: Cytotoxicity against human HOP62 cells assessed as cellular growth at 10 uM by SRB assay
# [49] = tested on: RPMI-8226; test: Cytotoxicity against human RPMI8226 cells assessed as cellular growth at 10 uM by SRB assay
# [50] = tested on: RXF 393; test: Cytotoxicity against human RXF393 cells assessed as cellular growth at 10 uM by SRB assay
# [51] = tested on: TK-10; test: Cytotoxicity against human TK10 cells assessed as cellular growth at 10 uM by SRB assay
# [52] = tested on: KM12; test: Cytotoxicity against human KM12 cells assessed as cellular growth at 10 uM by SRB assay
# [53] = tested on: SK-MEL-2; test: Cytotoxicity against human SK-MEL-2 cells assessed as cellular growth at 10 uM by SRB assay
# [54] = tested on: PC-3; test: Cytotoxicity against human PC3 cells assessed as cellular growth at 10 uM by SRB assay
# [55] = tested on: IGROV-1; test: Cytotoxicity against human IGROV1 cells assessed as cellular growth at 10 uM by SRB assay
# [56] = tested on: SR; test: Cytotoxicity against human SR cells assessed as cellular growth at 10 uM by SRB assay
# [57] = tested on: U-251; test: Cytotoxicity against human U251 cells assessed as cellular growth at 10 uM by SRB assay
# [58] = tested on: SNB-75; test: Cytotoxicity against human SNB75 cells assessed as cellular growth at 10 uM by SRB assay
# [59] = tested on: NCI-H460; test: Cytotoxicity against human NCI-H460 cells assessed as cellular growth at 10 uM by SRB assay
# [60] = tested on: T47D; test: Cytotoxicity against human T47D cells assessed as cellular growth at 10 uM by SRB assay
compound,measurement,setting,value
COc1ccc(NC(=O)c2sc3nc4c(cc3c2N)C(=O)CCC4)cc1,Activity,[1],115.02%
same,Activity,[2],100.6%
same,Activity,[3],116.74%
same,Activity,[4],102.19%
same,Activity,[5],97.12%
same,Activity,[6],115.9%
same,Activity,[7],96.26%
same,Activity,[8],88.17%
same,Activity,[9],94.7%
same,Activity,[10],102.57%
same,Activity,[11],103.09%
same,Activity,[12],98.62%
same,Activity,[13],100.22%
same,Activity,[14],100.45%
same,Activity,[15],100.8%
same,Activity,[16],103.46%
same,Activity,[17],78.47%
same,Activity,[18],99.71%
same,Activity,[19],106.67%
same,Activity,[20],103.89%
same,Activity,[21],111.85%
same,Activity,[22],102.12%
same,Activity,[23],104.14%
same,Activity,[24],107.58%
same,Activity,[25],110.45%
same,Activity,[26],103.75%
same,Activity,[27],106.6%
same,Activity,[28],135.57%
same,Activity,[29],97.06%
same,Activity,[30],57.79%
same,Activity,[31],116.49%
same,Activity,[32],102.64%
same,Activity,[33],95.31%
same,Activity,[34],109.37%
same,Activity,[35],97.44%
same,Activity,[36],105.22%
same,Activity,[37],116.6%
same,Activity,[38],117.22%
same,Activity,[39],122.21%
same,Activity,[40],116.88%
same,Activity,[41],109.11%
same,Activity,[42],97.11%
same,Activity,[43],39.38%
same,Activity,[44],80.98%
same,Activity,[45],87.19%
same,Activity,[46],107.69%
same,Activity,[47],108.88%
same,Activity,[48],112.48%
same,Activity,[49],104.85%
same,Activity,[50],101.13%
same,Activity,[51],103.14%
same,Activity,[52],105.15%
same,Activity,[53],114.87%
same,Activity,[54],99.67%
same,Activity,[55],114.88%
same,Activity,[56],113.2%
same,Activity,[57],106.61%
same,Activity,[58],103.13%
same,Activity,[59],96.07%
same,Activity,[60],110.7%
Cc1ccc(NC(=O)c2sc3nc4c(cc3c2N)C(=O)CCC4)c(Br)c1,Activity,[1],92.59%
same,Activity,[2],102.77%
same,Activity,[3],100.23%
same,Activity,[4],108.79%
same,Activity,[5],94.29%
same,Activity,[6],103.27%
same,Activity,[7],102.24%
same,Activity,[8],103.07%
same,Activity,[9],102.39%
same,Activity,[10],89.55%
same,Activity,[11],113.85%
same,Activity,[12],92.03%
same,Activity,[13],103.96%
same,Activity,[14],107.4%
same,Activity,[15],103.46%
same,Activity,[16],102.67%
same,Activity,[17],107.03%
same,Activity,[18],105.13%
same,Activity,[19],107.72%
same,Activity,[20],105.12%
same,Activity,[21],97.41%
same,Activity,[22],95.81%
same,Activity,[23],96.02%
same,Activity,[24],98.57%
same,Activity,[25],95.44%
same,Activity,[26],101.82%
same,Activity,[27],94.06%
same,Activity,[28],100.84%
same,Activity,[29],94.2%
same,Activity,[30],103.11%
same,Activity,[31],118.27%
same,Activity,[32],108.91%
same,Activity,[33],99.85%
same,Activity,[34],111.67%
same,Activity,[35],92.09%
same,Activity,[36],107.36%
same,Activity,[37],104.86%
same,Activity,[38],96.22%
same,Activity,[39],113.39%
same,Activity,[40],94.31%
same,Activity,[41],100.61%
same,Activity,[42],106.38%
same,Activity,[43],83.73%
same,Activity,[44],91.32%
same,Activity,[45],106.56%
same,Activity,[46],105.66%
same,Activity,[47],107.12%
same,Activity,[48],95.12%
same,Activity,[49],109.86%
same,Activity,[50],118.46%
same,Activity,[51],131.53%
same,Activity,[52],97.82%
same,Activity,[54],102.4%
same,Activity,[55],112.76%
same,Activity,[57],94.7%
same,Activity,[58],107.29%
same,Activity,[59],101.57%
same,Activity,[60],89.73%
